The subject of series [1] is HepG2, MCF-7, A-549 and CaCo-2 cell lines. Briefly: MTT cytotoxicity assay, summary over all tested cell lines. It is filed as cell-based, human. Conditions: for cytotoxic effect on the four cancer cell lines: in words; for IC50: Homo sapiens, range over compounds and cell lines, read-out: IC50 values versus all tested cell lines (collective range). The source says: (§1) • HepG2 [HEPG2] (ATCC® HB-8065™, Manassas, VA, USA) epithelial hepatocellular carcinoma was derived from the liver tissue of a person (a well-differentiated hepatocellular carcinoma). The human HCC cell line, HEPG-2, was obtained from the American Type Culture Collection and used to evaluate the effects of the following drugs. MCF-7(ATCC® HTB-22™, Manassas, VA, USA) breast cancer cells were derived from mammary gland or breast at a metastatic site. The human MCF-7 cell line, MCF-7, was obtained from the American Type Culture Collection and used to evaluate the effects of the following drugs. • Caco 2 [Caco2] (ATCC® HTB 37™, Manassas, VA, USA) epithelial colorectal adenocarcinoma was derived from the colon at a metastatic site. The human Caco-2 cell line, Caco-2, was obtained from the American Type Culture Collection and used to evaluate the effects of the following drugs. A549 (ATCC® CCL-185™, Manassas, VA, USA), epithelial-like lung carcinoma, was derived from lung tissue at a metastatic site. The human A549 cell line, A549, was obtained from the American Type Culture Collection and used to evaluate the effects of the following drugs.
(§2) HEPG2, A549, MCF-7 and Caco-2 cells were maintained in a monolayer culture in a T-25 flask at 5% CO2 and 37 °C in DMEM (Lonza, Verviers, Belgium) and supplemented with 10% (v/v) FBS (Sigma-Aldrich Co. LLC., Burlington, VT, USA). Penicillin/streptomycin (Gibco®, Grand Island, NY, USA) was applied at 100 units/mL and 100 µg/mL, respectively.
(§3) Growth inhibition was determined by classic MTT assay. In brief, HEPG2, A549, MCF-7 and Caco-2 cells were added to a cell culture MTT assay plate at a concentration of 5 × 10^3 cells/well in 1640 medium and cultured overnight. The different treatments were added on day 1 according to the calculated doses except on the control well and standard, then incubated for 24 h. Measurement was achieved using a microplate reader (Model 550, Bio-Rad, Hercules, CA, USA).
(In general: Tetrazolium assays rely on reduction of a dye to a coloured formazan, in cell work by metabolically active cells.)

In series [2] the test system is HepG2 cell line. As to the kind of experiment: MTT cytotoxicity assay, HepG2. It is filed as cell-based. Conditions: Homo sapiens. The source says:
(§4) The human HCC cell line, HEPG-2, was obtained from the American Type Culture Collection and used to evaluate the effects of the following drugs. MCF-7(ATCC® HTB-22TM, Manassas, VA, USA) breast cancer cells were derived from mammary gland or breast at a metastatic site. […] The human Caco-2 cell line, Caco-2, was obtained from the American Type Culture Collection and used to evaluate the effects of the following drugs. […], Manassas, VA, USA), epithelial-like lung carcinoma, was derived from lung tissue at a metastatic site. The human A549 cell line, A549, was obtained from the American Type Culture Collection and used to evaluate the effects of the following drugs. […] LLC., Burlington, VT, USA). Penicillin/streptomycin (Gibco®, Grand Island, NY, USA) was applied at 100 units/mL and 100 μg/mL, respectively. Growth inhibition was determined by classic MTT assay. In brief, HEPG2, A549, MCF-7 and Caco-2 cells were added to a cell culture MTT assay plate at a concentration of 5 × 10^3 cells/well in 1640 medium and cultured overnight. The different treatments were added on day 1 according to the calculated doses except on the control well and standard, then incubated for 24 h.

The subject of series [3] is VEGFR-2 protein expression level in MCF-7 cell line. As to the kind of experiment: Human VEGF receptor-2 ELISA in MCF-7. The series is classed as cell-based. Further details: concentration or dose not given beside the values. Particulars: MCF-7, ELISA, compared to control. Here is the method:
(§5) Total protein was assayed using the method described by Bradford. The Human VEGF receptor-2 ELISA Kit (ab213476), (96 tests) was purchased from (abcam®, Waltham, MA, USA). The kit is a sandwich enzyme immunoassay for the in vitro quantitative measurement of human VEGFR-2 in tissue homogenates, cell lysates and other biological fluids according to the manufacturer’s instructions.

Series [4] relates to VEGF gene expression level in HepG2 cell line. As to the kind of experiment: Real-time PCR of VEGF gene expression, HepG2. Particulars: HepG2, 3 days of treatment, compared to control, in words. The series is classed as cell-based, human. Here is the method: RT-PCR was applied to evaluate the VEGF gene expression level. Briefly, total RNA was extracted, and the extracted total RNA concentration was determined using a NanoDrop 2000 spectrophotometer (Thermo Fisher, Waltham, MA, USA). To determine the relative expression levels, the 2^−ΔΔCT method was used. NCBI/Primer Blast was used to define the primer sequences. The experiments were performed in quadruplicate. The primer sequences of VEGF and β-actin genes are listed below: […]

The subject of series [5] is VEGF protein expression level in MCF-7 cell line. Briefly: VEGF ELISA in MCF-7 cell culture supernatant. It is filed as cell-based, human. Conditions: MCF-7, ELISA, compared to control. Set-up: concentration or dose not given beside the values. Here is the method: (§6) Total protein was assayed using the method described by Bradford. The VEGF ELISA Assay Kit (VEGF) and ELISA Kit, (#VGF31-[…]) were purchased from (Eagle Biosciences CO., LTD, Amherst, NH, USA). The kit is a sandwich enzyme immunoassay for the in vitro quantitative determination of VEGF concentrations in cell culture supernates, serum and plasma according to the manufacturer's instructions.

Series [6] deals with VEGF protein expression level in HepG2 cell line. As to the kind of experiment: VEGF ELISA in HepG2 cell culture supernatant. It is filed as cell-based, human. Further details: concentration or dose not given beside the values. Conditions: compared to control. Here is the method:
as §6

The test system of series [7] is A-549 cell line. Briefly: MTT cytotoxicity assay, A-549. It is filed as cell-based. Conditions: Homo sapiens, A549, read-out: IC50 A-549 Lung Carcinoma.
Text: as §1, §2, §3

For series [8], the system named is MCF-7 cell line. Briefly: MTT cytotoxicity assay, MCF-7. It is filed as cell-based. Conditions: Homo sapiens, MCF7, read-out: IC50 MCF-7 Breast Cancer.
Text: as §4

Series [9] deals with VEGFR-2 protein expression level in HepG2 cell line. As to the kind of experiment: Human VEGF receptor-2 ELISA in HepG2. It is filed as cell-based. Set-up: concentration or dose not given beside the values. Conditions: compared to control. Here is the method: as §5
Background: In an ELISA, binding on a coated surface is turned into a signal by an enzyme label.

The test system of series [10] is CaCo-2 cell line. Briefly: MTT cytotoxicity assay, CaCo-2. It is filed as cell-based. Conditions: Homo sapiens, read-out: IC50 CaCo-2 Colon Cancer.
Text: as §1, §2, §3

Setting [11] is: read-out: IC50 HepG2 Livercarcinoma.

Like-named read-outs stand apart in the source and are kept apart here.

A word on the melting point: it is the temperature, or range, at which the solid turns liquid. The IC50 is the concentration at which inhibition is half-maximal.

`COc1ccc(-c2nc3c(N=Nc4ccc(C)cc4)c(N)nn3c(N)c2C#N)cc1` [Compound 6, 2,7-Diamino-5-(4-Methoxyphenyl)-3-(4-Tolyldiazenyl)Pyrazolo[1,5-a]Pyrimidine-6-Carbonitrile] gave a melting point of 230 to 232 °C. Also, the “cytotoxic effect on the four cancer cell lines” value (shortened to “cytotoxic effect”) in series [1] is on record as “no cytotoxic effects even at high doses”.

For `CNC(=O)c1cc(Oc2ccc(NC(=O)Nc3ccc(Cl)c(C(F)(F)F)c3)cc2)ccn1` [Sorafenib, reference compound], the IC50 in series [2] (setting [11]) turned out to be 6 µM.

Compound `Cc1ccc(N=Nc2c(N)nn3c(N)c(N=Nc4ccc(S(=O)(=O)N=C(N)N)cc4)c(N)nc23)cc1` [Compound 7, N-(Diaminomethylene)-4-((2,5,7-Triamino-3-(4-Tolyldiazenyl)Pyrazolo[1,5-a]Pyrimidin-6-yl)Diazenyl)Benzenesulfonamide] showed a melting point of 264 to 266 °C. In series [3], the “VEGFR-2 24 h % Inhibition” value amounted to 60% and the “VEGFR-2 72 h % Inhibition” value worked out at 62.5%. In [4], the “VEGF gene expression level” value is reported as “best VEGF gene expression level downregulation”. Also, the IC50 in series [1] was in the range of 6 to 50 µM. Further, in [5], the “VEGF 24 h % Inhibition” value worked out at 50% and the “VEGF 72 h % Inhibition” value is 62.5%. Moreover, the 50% inhibitory concentration (IC50) in [2] (TPGS-coated vs uncoated niosomes vs pure compound, read-out: IC50 Hepg2 Liver Carcinoma) turned out to be 6 µM. In addition, the half-maximal inhibitory concentration (IC50) in series [2] (setting [11]) was found to be 6 µM. Moreover, in series [6], the “VEGF 24 h % Inhibition” value was found to be 51.5% and the “VEGF 72 h % Inhibition” value is listed as 70.3%. Further, the IC50 in series [7] came out at 12 µM. Further, the IC50 in series [8] turned out to be 12 µM. Also, in series [9], the “VEGFR-2 24 h % Inhibition” value is reported as 69.7% and the “VEGFR-2 72 h % Inhibition” value worked out at 72.3%. The IC50 in series [10] worked out at 6 µM.

In turn, `Cc1ccc(N=Nc2c(N)nn3c(C)c(N=Nc4ccc(S(=O)(=O)N=C(N)N)cc4)c(=O)[nH]c23)cc1` [Compound 4a, 4-((2-Amino-7-methyl-5-oxo-3-(4-tolyldiazenyl)-4,5-dihydropyrazolo[1,5-a]pyrimidin-6-yl)diazenyl)-N-(diaminomethylene)benzenesulfonamide] gave a melting point of 272 to 274 °C. Further, the “cytotoxic effect” value in [1] is “no cytotoxic effects even at high doses”.

Regarding `Cc1ccc(N=Nc2c(N)n[nH]c2N)cc1` [Compound 1, 4-(p-tolyldiazenyl)-1H-pyrazole-3,5-diamine], the “VEGFR-2 24 h % Inhibition” value in series [3] turned out to be 33.3%; in series [9], 52.6%. Moreover, the “VEGFR-2 72 h % Inhibition” value in [3] was 50%; in [9], 38.5%. The half-inhibitory concentration (IC50) in [1] was 6 to 50 µM; in series [2] (setting [11]) it was 20 µM; in [7], 15.1 µM; in series [8] it was 50 µM; in [10], 18.2 µM. Besides, the “VEGF 24 h % Inhibition” value in [5] was 20%; in series [6], 23%. In addition, the “VEGF 72 h % Inhibition” value in series [5] is listed as 50%; in series [6] it was 33.3%.

In the case of `Cc1ccc(N=Nc2c(N)nn3c(C)c(N=Nc4ccc(S(=O)(=O)N=C(N)N)cc4)c(C)nc23)cc1` [Compound 3a, 4-((2-Amino-5,7-dimethyl-3-(4-tolyldiazenyl)pyrazolo[1,5-a]pyrimidin-6-yl)diazenyl)-N-(diaminomethylene)benzenesulfonamide], the melting point fell in the range of 250 to 252 °C. Besides, in [1], the “cytotoxic effect” value is given as “no cytotoxic effects even at high doses”.

Regarding `Cc1ccc(N=Nc2c(N)nn3c2NC(=O)C(=NNc2ccc(S(=O)(=O)N=C(N)N)cc2)C3=O)cc1` [Compound 5, 4-(2-(2-Amino-5,7-Dioxo-3-(4-Tolyldiazenyl)-4,5-Dihydropyrazolo[1,5-a]Pyrimidin-6(7H)-Ylidene)Hydrazinyl)-N-(Diaminomethylene)Benzenesulfonamide], the melting point was in the range of 278 to 280 °C. The “cytotoxic effect” value in series [1] is listed as “no cytotoxic effects even at high doses”.

In the case of `Cc1ccc(N=Nc2c(N)nn3c(N)c(N=Nc4cccc([N+](=O)[O-])c4)c(O)nc23)cc1` [Compound 2b, 2,7-diamino-6-((3-nitrophenyl)diazenyl)-3-(4-tolyldiazenyl)pyrazolo[1,5-a]pyrimidin-5-ol], the melting point lay in the range of 234 to 236 °C. Further, the “cytotoxic effect” value in series [1] was “no cytotoxic effects even at high doses”.

In the case of `CNC(=O)c1cc(Oc2ccc(NC(=O)Nc3ccc(Cl)c(C(F)(F)F)c3)c(F)c2)ccn1` [Regorafenib, reference compound], the IC50 in [2] (setting [11]) was determined as 3 µM. Moreover, in series [6], the “VEGF 24 h % Inhibition” value was determined as 70.8% and the “VEGF 72 h % Inhibition” value was determined as 75.4%. For the same compound, in [9], the “VEGFR-2 24 h % Inhibition” value is 62% and the “VEGFR-2 72 h % Inhibition” value is listed as 55.6%.

In turn, `Cc1ccc(N=Nc2c(N)nn3c(C)c(N=Nc4cccc([N+](=O)[O-])c4)c(C)nc23)cc1` [Compound 3b, 5,7-Dimethyl-6-((3-nitrophenyl)diazenyl)-3-(4-tolyldiazenyl)pyrazolo[1,5-a]pyrimidin-2-amine] had a melting point of 256 to 258 °C. The “cytotoxic effect” value in [1] is “no cytotoxic effects even at high doses”.

`CO[C@H]1C[C@@H]2CC[C@@H](C)[C@@](O)(O2)C(=O)C(=O)N2CCCC[C@H]2C(=O)O[C@H]([C@H](C)C[C@@H]2CC[C@@H](OCCO)[C@H](OC)C2)CC(=O)[C@H](C)/C=C(\C)[C@@H](O)[C@@H](OC)C(=O)[C@H](C)C[C@H](C)/C=C/C=C/C=C/1C` [Everolimus, reference compound]: in [3], the “VEGFR-2 24 h % Inhibition” value came out at 40% and the “VEGFR-2 72 h % Inhibition” value is listed as 50%. Moreover, in series [5], the “VEGF 24 h % Inhibition” value amounted to 50% and the “VEGF 72 h % Inhibition” value amounted to 62.5%. Further, the IC50 in series [8] is 3 µM.

For the origin of these results see publication PMC8949375, “Design, Green Synthesis and Tailoring of Vitamin E TPGS Augmented Niosomal Nano-Carrier of Pyrazolopyrimidines as Potential Anti-Liver and Breast Cancer Agents with Accentuated Oral Bioavailability” (Pharmaceuticals, 2022).
